Consider 15 compounds from US11117883B2 (Ariad Pharmaceuticals, Inc., priority 2016, dated 2021).

Common to all, as to test: c-Kit assay: Ba/F3 KIT mutant viability (Cell Titer-Glo, 72 hours)
Assay type in all cases: cell-based

The target of test [1] is T1, BAF3 FL KIT EX11DEL/V654A (Homo sapiens, UniProt P10721, V654A, cells depend on it, form not given).
T1 construct: "BAF3 FL KIT EX11DEL/ V654A"
The following applies: viability after 72 hours. As to the method: (§1) KIT cDNAs were synthesized by GenScript and cloned into the pLVX-IRES-Puro vector (Clontech). Viral particles were produced by transfecting pLVX-IRES-puro vectors containing KIT mutant genes into HEK293 cells (Invitrogen) using the Trans-Lentiviral ORF Packaging Kit (Thermo Scientific). 48 hours post-transfection, virus-containing supernatants were harvested and incubated for another 48-72 hours with parental Ba/F3 cells (DSMZ) in the presence of 10 ng/mL […] (R&D Systems). Transduced Ba/F3 cells were then selected by IL-3 withdrawal and puromycin (0.5-1 μg/mL, Invitrogen).
(§2) Cell lines (i.e., EX11DEL, EX11DEL/D816H, EX11DEL/T670I, and EX11DEL/V654A) were plated into 384 well plates using RPMI 1640 supplemented with 10% FBS at densities that produced linear growth and incubated at 37° C. in 5% (v/v) CO2. Cells were treated with eight concentrations of compound over a 4-fold dilution (10 μM to 0.61 nM) and viability was assessed using Cell Titer-Glo assay (Promega) after 72 hours. Data were plotted as percent viability relative to vehicle-treated cells. Dose-responses curves were generated and used to calculate IC50 values.

In test [2] the target is T2, BAF3 FL KIT EX11DEL/T6701 (Homo sapiens, UniProt P10721, T670I, cells depend on it, form not given).
T2 construct: "BAF3 FL KIT EX11DEL/ T6701"
The following applies: EX11DEL/T6701, viability after 72 hours. As to the method:
as §1, §2

Test [3] deals with T3, BAF3 FL KIT EX11DEL/D816H (Homo sapiens, UniProt P10721, D816H, cells depend on it, form not given).
T3 construct: "BAF3 FL KIT EX11DEL/ D816H"
The following applies: viability after 72 hours. As to the method:
as §1, §2

A further test addresses T4, BAF3 FL KIT EX11DEL (Homo sapiens, UniProt P10721, cells depend on it, form not given).
T4 construct: "BAF3 FL KIT EX11DEL"
The following applies: viability after 72 hours. As to the method: as §1, §2

SMILES strings stand for the structures. Some results are limits rather than exact numbers.

T3 sequence (P10721 with tags, fused parts or gaps DEL557-558/D816H, form open): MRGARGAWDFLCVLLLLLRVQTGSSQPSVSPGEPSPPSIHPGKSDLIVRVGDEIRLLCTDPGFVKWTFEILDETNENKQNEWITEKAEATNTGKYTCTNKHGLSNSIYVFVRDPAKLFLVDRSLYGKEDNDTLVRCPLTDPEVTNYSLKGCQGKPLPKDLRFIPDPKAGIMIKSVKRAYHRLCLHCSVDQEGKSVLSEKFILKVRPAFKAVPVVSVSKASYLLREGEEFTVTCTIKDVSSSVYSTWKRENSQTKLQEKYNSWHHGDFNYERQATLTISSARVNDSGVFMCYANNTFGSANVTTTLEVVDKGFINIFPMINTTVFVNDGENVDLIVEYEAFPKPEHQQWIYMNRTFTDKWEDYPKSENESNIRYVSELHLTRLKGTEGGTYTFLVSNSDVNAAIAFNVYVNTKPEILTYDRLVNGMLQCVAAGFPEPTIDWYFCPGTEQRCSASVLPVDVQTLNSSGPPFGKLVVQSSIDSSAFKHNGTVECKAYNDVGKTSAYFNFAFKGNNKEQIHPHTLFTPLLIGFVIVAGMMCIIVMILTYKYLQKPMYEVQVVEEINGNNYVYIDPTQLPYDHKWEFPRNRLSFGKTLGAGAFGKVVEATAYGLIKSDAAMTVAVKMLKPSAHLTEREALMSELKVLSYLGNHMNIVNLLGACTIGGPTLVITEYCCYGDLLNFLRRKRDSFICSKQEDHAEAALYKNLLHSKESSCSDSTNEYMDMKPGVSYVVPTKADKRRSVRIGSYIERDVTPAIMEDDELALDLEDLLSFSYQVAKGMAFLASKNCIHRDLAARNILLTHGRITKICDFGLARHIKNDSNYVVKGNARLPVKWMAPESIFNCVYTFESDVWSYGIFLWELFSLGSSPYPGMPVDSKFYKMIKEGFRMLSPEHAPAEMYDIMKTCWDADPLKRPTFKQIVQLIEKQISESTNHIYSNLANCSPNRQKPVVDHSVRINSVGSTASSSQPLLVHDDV
T2 sequence (P10721 with tags, fused parts or gaps DEL557-558/T670I, form open): as the sequence (P10721 with tags, fused parts or gaps DEL557-558/D816H, form open) above, with T668I, H814D counted along it
T4 sequence (P10721 with tags, fused parts or gaps DEL557-558): as the sequence (P10721 with tags, fused parts or gaps DEL557-558/D816H, form open) above, with H814D counted along it
T1 sequence (P10721 with tags, fused parts or gaps DEL557-558/V654A, form open): as the sequence (P10721 with tags, fused parts or gaps DEL557-558/D816H, form open) above, with V652A, H814D counted along it

Usually GI50 stands for the concentration giving 50% growth inhibition. Consider `Cc1ccc(C(=O)Nc2cc(C(F)(F)F)ccn2)cc1C#Cc1ccc2c(c1)ncn2-c1cn(C)cn1` [Compound I-23, 4-methyl-3-((1-(1-methyl-1H-imidazol-4-yl)-1H-benzo[d]imidazol-5-yl)ethynyl)-N-(4-(trifluoromethyl)pyridin-2-yl)benzamide], for which the GI50 in test [1] is 10 to 50 nM; in test [2], < 10 nM; in test [3], 10 to 50 nM; at BAF3 FL KIT EX11DEL, < 10 nM.
`Cc1ccc(C(=O)Nc2cc(C(F)(F)F)ccn2)cc1C#Cc1ccc2c(c1)ncn2-c1cn(C)nn1` [Compound I-24, 4-methyl-3-((1-(1-methyl-1H-1,2,3-triazol-4-yl)-1H-benzo[d]imidazol-5-yl)ethynyl)-N-(4-(trifluoromethyl)pyridin-2-yl)benzamide]: the GI50 was 10 to 50 nM in test [1], < 10 nM in test [2], 10 to 50 nM in test [3] and < 10 nM at BAF3 FL KIT EX11DEL.
Regarding `Cc1ccc(C(=O)Nc2cc(C(F)(F)F)ccn2)cc1C#Cc1ccc2c(c1)ncn2-c1cnn(C2CCN(C=O)CC2)c1` [Compound I-25, 3-((1-(1-(1-formylpiperidin-4-yl)-1H-pyrazol-4-yl)-1H-benzo[d]imidazol-5-yl)ethynyl)-4-methyl-N-(4-(trifluoromethyl)pyridin-2-yl)benzamide], the GI50 in test [1] was 10 to 50 nM; in test [2] it was < 10 nM; in test [3], 10 to 50 nM; at BAF3 FL KIT EX11DEL, < 10 nM.
For the compound `Cc1ccc(C(=O)Nc2cc(C(F)(F)F)ccn2)cc1C#Cc1ccc2c(c1)ncn2-c1cnn(C2CCNCC2)c1` [Compound I-26, 4-methyl-3-((1-(1-(piperidin-4-yl)-1H-pyrazol-4-yl)-1H-benzo[d]imidazol-5-yl)ethynyl)-N-(4-(trifluoromethyl)pyridin-2-yl)benzamide], the GI50 in test [1] is 10 to 50 nM; in test [2], 10 to 50 nM; in test [3] it was 10 to 50 nM; at BAF3 FL KIT EX11DEL it was < 10 nM.
Consider `Cc1ccc(C(=O)Nc2cc(C(F)(F)F)ccn2)cc1C#Cc1ccc2c(c1)ncn2-c1cnn(C2CCN(C)CC2)c1` [Compound I-27, 4-methyl-3-((1-(1-(1-methylpiperidin-4-yl)-1H-pyrazol-4-yl)-1H-benzo[d]imidazol-5-yl)ethynyl)-N-(4-(trifluoromethyl)pyridin-2-yl)benzamide], for which the GI50 in test [1] was 10 to 50 nM; in test [2] it was 10 to 50 nM; in test [3], 10 to 50 nM; at BAF3 FL KIT EX11DEL, < 10 nM.
On to `Cc1ccc(C(=O)Nc2cccc(C3CC3)c2)cc1C#Cc1ccc2c(c1)ncn2-c1cnn(C)c1` [Compound I-28, N-(3-cyclopropylphenyl)-4-methyl-3-((1-(1-methyl-1H-pyrazol-4-yl)-1H-benzo[d]imidazol-5-yl)ethynyl)benzamide], for which the GI50 in test [1] lay within 50 to 100 nM; in test [2], 10 to 50 nM; in test [3] it was 50 to 100 nM; at BAF3 FL KIT EX11DEL, 10 to 50 nM.
As for `Cc1ccc(C(=O)Nc2ccc(CN3CCCC3)c(C(F)(F)F)c2)cc1C#Cc1ccc2c(c1)ncn2-c1cnn(C)c1` [Compound I-29, 4-methyl-3-((1-(1-methyl-1H-pyrazol-4-yl)-1H-benzo[d]imidazol-5-yl)ethynyl)-N-(4-(pyrrolidin-1-ylmethyl)-3-(trifluoromethyl)phenyl)benzamide], the GI50 in test [1] fell in the range of 50 to 100 nM; in test [2] it was 10 to 50 nM; in test [3] it was 10 to 50 nM; at BAF3 FL KIT EX11DEL, 10 to 50 nM.
Regarding `Cc1ccc(C(=O)Nc2ccc(CN3CCCC3)c(C(F)(F)F)c2)cc1C#Cc1ccc2c(c1)ncn2C` [Compound I-30, 4-methyl-3-((1-methyl-1H-benzo[d]imidazol-5-yl)ethynyl)-N-(4-(pyrrolidin-1-ylmethyl)-3-(trifluoromethyl)phenyl)benzamide], the GI50 in test [1] was 50 to 100 nM; in test [2], 50 to 100 nM; in test [3], 100 to 10000 nM; at BAF3 FL KIT EX11DEL it was 10 to 50 nM.
On to `Cc1ccc(C(=O)Nc2cc(C(F)(F)F)ccn2)cc1C#Cc1ccc2c(c1)ncn2-c1cnn(CCO)c1` [Compound I-31, 3-((1-(1-(2-hydroxyethyl)-1H-pyrazol-4-yl)-1H-benzo[d]imidazol-5-yl)ethynyl)-4-methyl-N-(4-(trifluoromethyl)pyridin-2-yl)benzamide], for which the GI50 is 10 to 50 nM in test [1], < 10 nM in test [2], 10 to 50 nM in test [3] and < 10 nM at BAF3 FL KIT EX11DEL.
As to `COCCn1cc(-n2cnc3cc(C#Cc4cc(C(=O)Nc5cc(C(F)(F)F)ccn5)ccc4C)ccc32)cn1` [Compound I-32, 3-((1-(1-(2-methoxyethyl)-1H-pyrazol-4-yl)-1H-benzo[d]imidazol-5-yl)ethynyl)-4-methyl-N-(4-(trifluoromethyl)pyridin-2-yl)benzamide], the GI50 is 10 to 50 nM in test [1], < 10 nM in test [2], 10 to 50 nM in test [3] and < 10 nM on BAF3 FL KIT EX11DEL.
In the case of `Cc1ccc(C(=O)Nc2cc(C(F)(F)F)ccn2)cc1C#Cc1ccc2c(c1)ncn2-c1cnn(C2CCOCC2)c1` [Compound I-33, 4-methyl-3-((1-(1-(tetrahydro-2H-pyran-4-yl)-1H-pyrazol-4-yl)-1H-benzo[d]imidazol-5-yl)ethynyl)-N-(4-(trifluoromethyl)pyridin-2-yl)benzamide], the GI50 in test [1] is 10 to 50 nM; in test [2], < 10 nM; in test [3] it was 10 to 50 nM; on BAF3 FL KIT EX11DEL it was < 10 nM.
In the case of `Cc1ccc(C(=O)Nc2cc(C(F)(F)F)ccn2)cc1C#Cc1ccc2c(c1)ncn2-c1cn(C2CCN(C)CC2)cn1` [Compound I-34, 4-methyl-3-((1-(1-(1-methylpiperidin-4-yl)-1H-imidazol-4-yl)-1H-benzo[d]imidazol-5-yl)ethynyl)-N-(4-(trifluoromethyl)pyridin-2-yl)benzamide], the GI50 is 100 to 10000 nM in test [1], 10 to 50 nM in test [2], 100 to 10000 nM in test [3] and < 10 nM on BAF3 FL KIT EX11DEL.
In the case of `Cc1ccc(C(=O)Nc2cc(C(F)(F)F)ccn2)cc1C#Cc1ccc2c(c1)ncn2-c1cn[nH]c1` [Compound I-35, 3-((1-(1H-pyrazol-4-yl)-1H-benzo[d]imidazol-5-yl)ethynyl)-4-methyl-N-(4-(trifluoromethyl)pyridin-2-yl)benzamide], the GI50 in test [1] was 10 to 50 nM; in test [2], 10 to 50 nM; in test [3], 10 to 50 nM; on BAF3 FL KIT EX11DEL, < 10 nM.
With `Cc1ccc(NC(=O)c2cc(C(F)(F)F)ccn2)cc1C#Cc1ccc2c(c1)ncn2-c1cn(C)nn1` [Compound I-36, N-(4-methyl-3-((1-(1-methyl-1H-1,2,3-triazol-4-yl)-1H-benzo[d]imidazol-5-yl)ethynyl)phenyl)-4-(trifluoromethyl)picolinamide], the GI50 in test [1] was 10 to 50 nM; in test [2], 10 to 50 nM; in test [3], 10 to 50 nM; at BAF3 FL KIT EX11DEL, < 10 nM.
As to `Cc1ccc(C(=O)Nc2ccc(C#N)c(C(F)(F)F)c2)cc1C#Cc1ccc2c(c1)ncn2-c1ccn(C)n1` [Compound I-37, N-(4-cyano-3-(trifluoromethyl)phenyl)-4-methyl-3-((1-(1-methyl-1H-pyrazol-3-yl)-1H-benzo[d]imidazol-5-yl)ethynyl)benzamide], the GI50 is 50 to 100 nM in test [1], 10 to 50 nM in test [2], 10 to 50 nM in test [3] and < 10 nM at BAF3 FL KIT EX11DEL.
